In ChEMBL document CHEMBL5030556, “Selection and Identification of Novel Antibacterial Agents against Planktonic Growth and Biofilm Formation of Enterococcus faecalis” (J Med Chem, 2021):
Calls of active or inactive are those of the source. The calls are words filed in the database; no cut-off is given here.

Key:
Enterococcus faecalis [1] = experiment: Antibiofilm activity against Enterococcus faecalis FB-1 assessed as inhibition of biofilm maturation measured after 24 hr; format: functional, organism-based
Enterococcus faecalis [2] = experiment: Antimicrobial activity against Enterococcus faecalis OG1RF assessed as reduction in visible bacterial growth incubated for 16 to 20 hrs by microdilution broth assay; format: functional; conditions: time 16-20 hrs
[3] = Hemolytic activity against human erythrocytes at 200 uM incubated for 1 hr at 570 nm by spectrophotometry; format: ADME, tissue-based, Erythrocyte; conditions: read-out: Activity
Enterococcus faecalis [4] = experiment: Antibiofilm activity against Enterococcus faecalis FB-1 assessed as inhibition of biofilm maturation at 1.56 uM measured after 24 hr; format: functional, organism-based
Enterococcus faecalis [5] = experiment: Bacteriostatic activity against planktonic cells of Enterococcus faecalis OG1RF measured by microdilution broth assay; format: functional, organism-based
Enterococcus faecalis [6] = experiment: Antibiofilm activity against Enterococcus faecalis assessed as reduction in amount of viable biofilm-embedded bacterial cells at 50 uM measured by YTO 9/PI staining followed by confocal laser scanning microscopy; format: functional
[7] = Inhibition of Enterococcus faecalis OG1RF YycG autophosphorylation by Kinase-Glo luminescent kinase assay
[8] = Cytotoxicity against african green monkey Vero cells assessed as inhibition of cell growth by MTT assay; format: cell-based; conditions: chlorocebus sabaeus
Enterococcus faecalis [9] = experiment: Bactericidal activity against Enterococcus faecalis OG1RF assessed as reduction in bacterial colonies incubated for 16 to 20 hrs by microdilution broth analysis; format: functional; conditions: time 16-20 hrs, read-out: MBC99.9
Enterococcus faecalis [10] = experiment: Inhibition of biofilm formation of Enterococcus faecalis FB-1 assessed as inhibitory rate of formation at 100 uM for 24 hrs measured at 570 nm by crystal violet staining based spectrophotometry; format: functional
[11] = Hemolytic activity against human erythrocytes at 50 uM incubated for 1 hr at 570 nm by spectrophotometry; format: ADME, tissue-based, Erythrocyte; conditions: read-out: Activity
Enterococcus faecalis [12] = experiment: Antibiofilm activity against Enterococcus faecalis FB-1 assessed as eradication of mature biofilm by semiquantitative microtiter assay; format: functional, organism-based

With `Cc1ccc(CSc2nnc(N3C(=O)C(O)=C(C(=O)c4cc5ccccc5o4)C3c3cccc(O)c3)s2)cc1` (stereo unspecified) the Activity (Enterococcus faecalis [1]) was “Dose-Dependent Effect”, the MIC (Enterococcus faecalis [2]) was > 200 µM and the hemolysis at 1 h, 200 µM [3] was 6.32%. The Activity (Enterococcus faecalis [4]) was “Active”, the Activity (Enterococcus faecalis [5]) was “inactive” and the Activity (Enterococcus faecalis [6]) was 46.93%. The IC50 [7] was 1.5 µM, the CC50 [8] was > 200 µM and the MBC (Enterococcus faecalis [9]) was > 200 µM. For the same compound, the inhibition at 100 µM (Enterococcus faecalis [10]) was 77.7% and the hemolysis at 1 h, 50 µM [11] was 4.7%.

In the case of `O=C(C1=C(O)C(=O)N(c2nnc(SCc3ccccc3)s2)C1c1ccccc1F)c1cc2ccccc2o1` (stereo unspecified), the Activity (Enterococcus faecalis [1]) is reported as “Dose-Dependent Effect”, the MIC (Enterococcus faecalis [2]) is reported as > 200 µM and the hemolysis at 1 h, 200 µM [3] is reported as 8.31%. For the same compound, the Activity (Enterococcus faecalis [5]) was “inactive”, the IC50 [7] was > 200 µM and the CC50 [8] was > 200 µM. The Activity (Enterococcus faecalis [12]) was “inactive”, the MBC (Enterococcus faecalis [9]) was > 200 µM and the inhibition at 100 µM (Enterococcus faecalis [10]) was 73.8%. The hemolysis at 1 h, 50 µM [11] was 4.44%.
